The values that follow come from US6699506B1, “Pharmaceutical composition with extended release of Milnacipran” (Pierre Fabre Medicament, priority 1996, dated 2004).

SMILES strings stand for the structures. In brackets after ≈: the same amount, converted by molar mass.

One data set can be described thus: physchem. The following applies: water, aqueous solubility.
The test system of the next data set is noradrenaline. The following applies: cited from earlier work.
The test system of a further data set is dopamine. The following applies: cited from earlier work.
The next data set concerns serotonin. The following applies: cited from earlier work.

For orientation: solubility means the concentration that dissolves in the medium under given conditions. A high value points to much dissolved substance. Broadly, the bioavailability is the share of a dose that reaches the circulation, judged against a reference dose that is usually intravenous. What is called half-life is how long it takes for the measured level to halve. A high value points to slow decline.

As to `CCN(CC)C(=O)[C@@]1(c2ccccc2)C[C@H]1CN` [dextrorotatory form], the “activity of isomeric forms” value in “activity of the isomers” is on record as “more active than the levorotatory form”.

The molecule `CCN(CC)C(=O)C1(c2ccccc2)CC1CN` (stereo not shown) [Milnacipran] showed a solubility in the data set “physchem” of 800 mg/mL (≈ 3250 mM). Besides, the “inhibition of the capture of noradrenaline” value in the data set with noradrenaline was “mixed inhibition”. Besides, in “in vivo”, the bioavailability was > 85% and the half-life lay in the range of 7 to 9 h. Moreover, the effect on dopamine result with dopamine is reported as “no effect”. Further, the “inhibition of the capture of serotonin” value in the data set on serotonin is “mixed inhibition”.
